pIC50: −log10 of the molar value. Numbered stars: 1 amine (or outer) side, 2 acyl side, 3 side chain; on linkers, the order of the positions; unused ones are H or OH. Square brackets hold non-standard residues; d marks the D form. Peptide text beside a SMILES is read from it. * marks the point of attachment. ξ: configuration not given here. X1 = CCC(=O)C[C@H](O)C[C@@H](C)C[C@H](N[*:1])C(=O)[*:2]; Gly(1-adamantyl) = N[C@H](C(=O)O)C12CC3CC(CC(C3)C1)C2; Nva(5-pentanoyl) = CCCCC(=O)CCC[C@H](N)C(=O)O; NH((S)CH(Me)CH2NHC2H4OH) = C[C@@H](CNCCO)N*; Gly(octyl) = CCCCCCCC[C@H](N)C(=O)O; X2 = O=C([C@H](CCCCO)N[*:1])[*:2]; Ala(cPr) = N[C@@H](CC1CC1)C(=O)O; Cha = N[C@@H](CC1CCCCC1)C(=O)O; Ac5c = NC1(C(=O)O)CCCC1; Nva = CCC[C@H](N)C(=O)O; Ac3c = NC1(C(=O)O)CC1; Aib = CC(C)(N)C(=O)O; Butyryl = CCCC(=O)*; ξP = O=C(O)C1CCCN1; βAla = NCCC(=O)O
Key:
Assay type in all cases: functional, cell-based
[1] = tested on: T47D; test: Antiproliferative activity against human T47D cells
[2] = tested on: SK-BR-3; test: Antiproliferative activity against human SKBR3 cells
[3] = tested on: MDA-MB-468; test: Antiproliferative activity against human MDA-MB-468 cells
[4] = tested on: NCI-H460; test: Antiproliferative activity against human NCI-H460 cells

| Compound | pIC50 [1] | pIC50 [2] | pIC50 [3] | pIC50 [4] |
| --- | --- | --- | --- | --- |
| CCCC(=O)N1CCC[C@H]1C(=O)N[C@@H](C[C@H](C)C[C@@H](O)CC(=O)CC)C(=O)NC(C)(C)C(=O)NC(C)(C)C(=O)N[C@@H](CC(C)C)C(=O)N[C@@H](CC(C)C)C(=O)NC(C)(C)C(=O)N[C@@H](CC(C)C)C(=O)NCCC(=O)N[C@@H](C)CNCCO (Butyryl-P[X1][Aib][Aib]LL[Aib]L[βAla]-{NH((S)CH(Me)CH2NHC2H4OH)}) | 6.89 | < 6.00 | 7.05 | 6.30 |
| CCCCCCCC[C@H](NC(=O)C(C)(C)NC(=O)C(C)(C)NC(=O)[C@H](CCCC(=O)CCCC)NC(=O)[C@H](C)N)C(=O)N[C@@H](CC(C)C)C(=O)NC(C)(C)C(=O)N[C@@H](CC(C)C)C(=O)NCCC(=O)N[C@@H](C)CNCCO (H-A[Nva(5-pentanoyl)][Aib][Aib][Gly(octyl)]L[Aib]L[βAla]-{NH((S)CH(Me)CH2NHC2H4OH)}) | 8.22 | 7.74 | 8.15 | 8.30 |
| CCCCCCCC[C@H](NC(=O)C(C)(C)NC(=O)C(C)(C)NC(=O)[C@H](C[C@H](C)C[C@@H](O)CC(=O)CC)NC(=O)[C@@H]1CCCN1C(=O)CCC)C(=O)N[C@@H](CC(C)C)C(=O)NC(C)(C)C(=O)N[C@@H](CC(C)C)C(=O)NCCC(=O)N[C@@H](C)CNCCO (Butyryl-P[X1][Aib][Aib][Gly(octyl)]L[Aib]L[βAla]-{NH((S)CH(Me)CH2NHC2H4OH)}) | 8.52 | 7.60 | 8.40 | 8.10 |
| CCCCCCCC[C@H](NC(=O)C(C)(C)NC(=O)C(C)(C)NC(=O)[C@@H](NC(=O)[C@@H]1CCCN1C(=O)CCC)C12CC3CC(CC(C3)C1)C2)C(=O)N[C@@H](CC(C)C)C(=O)NC(C)(C)C(=O)N[C@@H](CC(C)C)C(=O)NCCC(=O)N[C@@H](C)CNCCO (Butyryl-P[Gly(1-adamantyl)][Aib][Aib][Gly(octyl)]L[Aib]L[βAla]-{NH((S)CH(Me)CH2NHC2H4OH)}) | 7.80 | 7.14 | 7.68 | 7.77 |
| CCCCCCCC[C@H](NC(=O)C(C)(C)NC(=O)C(C)(C)NC(=O)C1(NC(=O)[C@@H]2CCCN2C(=O)CCC)CC1)C(=O)N[C@@H](CC(C)C)C(=O)NC(C)(C)C(=O)N[C@@H](CC(C)C)C(=O)NCCC(=O)N[C@@H](C)CNCCO (Butyryl-P[Ac3c][Aib][Aib][Gly(octyl)]L[Aib]L[βAla]-{NH((S)CH(Me)CH2NHC2H4OH)}) | 7.24 | 6.63 | 7.19 | 7.06 |
| CCCC(=O)N1CCC[C@H]1C(=O)N[C@@H](C[C@H](C)C[C@@H](O)CC(=O)CC)C(=O)NC(C)(C)C(=O)NC(C)(C)C(=O)N[C@@H](CCC)C(=O)N[C@@H](CC(C)C)C(=O)NC(C)(C)C(=O)N[C@@H](CC(C)C)C(=O)NCCC(=O)N[C@@H](C)CNCCO (Butyryl-P[X1][Aib][Aib][Nva]L[Aib]L[βAla]-{NH((S)CH(Me)CH2NHC2H4OH)}) | 6.38 | < 6.00 | 6.56 | < 6.00 |
| CCCCCCCC[C@H](NC(=O)[C@H](C)NC(=O)C(C)(C)NC(=O)[C@H](CCCC(=O)CCCC)NC(=O)C1CCCN1C(=O)CCC)C(=O)N[C@@H](CC(C)C)C(=O)NC(C)(C)C(=O)N[C@@H](CC(C)C)C(=O)NCCC(=O)N[C@@H](C)CNCCO (stereo partly drawn) (Butyryl-[ξP][Nva(5-pentanoyl)][Aib]A[Gly(octyl)]L[Aib]L[βAla]-{NH((S)CH(Me)CH2NHC2H4OH)}) | 7.57 | 7.62 | 7.68 | 7.70 |
| CCCC(=O)N1CCC[C@H]1C(=O)N[C@@H](C[C@H](C)C[C@@H](O)CC(=O)CC)C(=O)NC(C)(C)C(=O)NC(C)(C)C(=O)N[C@H](C(=O)N[C@@H](CC(C)C)C(=O)NC(C)(C)C(=O)N[C@@H](CC(C)C)C(=O)NCCC(=O)N[C@@H](C)CNCCO)[C@@H](C)CC (Butyryl-P[X1][Aib][Aib]IL[Aib]L[βAla]-{NH((S)CH(Me)CH2NHC2H4OH)}) | 6.60 | < 6.00 | 6.85 | < 6.30 |
| CCCC(=O)N1CCC[C@H]1C(=O)N[C@@H](C[C@H](C)C[C@@H](O)CC(=O)CC)C(=O)NC(C)(C)C(=O)NC(C)(C)C(=O)N[C@@H](C)C(=O)N[C@@H](CC(C)C)C(=O)NC(C)(C)C(=O)N[C@@H](CC(C)C)C(=O)NCCC(=O)N[C@@H](C)CNCCO (Butyryl-P[X1][Aib][Aib]AL[Aib]L[βAla]-{NH((S)CH(Me)CH2NHC2H4OH)}) | < 6.00 | < 4.52 | < 6.00 | < 5.00 |
| CCCCCCCC[C@H](NC(=O)C(C)(C)NC(=O)C(C)(C)NC(=O)C1(NC(=O)[C@@H]2CCCN2C(=O)CCC)CCCC1)C(=O)N[C@@H](CC(C)C)C(=O)NC(C)(C)C(=O)N[C@@H](CC(C)C)C(=O)NCCC(=O)N[C@@H](C)CNCCO (Butyryl-P[Ac5c][Aib][Aib][Gly(octyl)]L[Aib]L[βAla]-{NH((S)CH(Me)CH2NHC2H4OH)}) | 7.54 | 6.93 | 7.54 | 7.44 |

Second part, the molecule after the results:

| pIC50 [1] | pIC50 [2] | pIC50 [3] | pIC50 [4] | Compound |
| --- | --- | --- | --- | --- |
| 7.96 | 7.33 | 7.70 | 7.74 | CCCCCCCC[C@H](NC(=O)C(C)(C)NC(=O)C(C)(C)NC(=O)[C@H](CCCC(=O)CCCC)NC(=O)C1CCCN1C(=O)CCC)C(=O)N[C@@H](CC(C)C)C(=O)NC(C)(C)C(=O)N[C@@H](CC(C)C)C(=O)NCCC(=O)N[C@@H](C)CNCCO (stereo partly drawn) (Butyryl-[ξP][Nva(5-pentanoyl)][Aib][Aib][Gly(octyl)]L[Aib]L[βAla]-{NH((S)CH(Me)CH2NHC2H4OH)}) |
| 7.21 | 6.46 | 7.17 | 7.15 | CCCCCCCC[C@H](NC(=O)C(C)(C)NC(=O)C(C)(C)NC(=O)[C@H](C)NC(=O)C1CCCN1C(=O)CCC)C(=O)N[C@@H](CC(C)C)C(=O)NC(C)(C)C(=O)N[C@@H](CC(C)C)C(=O)NCCC(=O)N[C@@H](C)CNCCO (stereo partly drawn) (Butyryl-[ξP]A[Aib][Aib][Gly(octyl)]L[Aib]L[βAla]-{NH((S)CH(Me)CH2NHC2H4OH)}) |
| 7.31 | 6.57 | 7.41 | 7.35 | CCCCCCCC[C@H](NC(=O)C(C)(C)NC(=O)C(C)(C)NC(=O)[C@H](CCCCO)NC(=O)[C@@H]1CCCN1C(=O)CCC)C(=O)N[C@@H](CC(C)C)C(=O)NC(C)(C)C(=O)N[C@@H](CC(C)C)C(=O)NCCC(=O)N[C@@H](C)CNCCO (Butyryl-P[X2][Aib][Aib][Gly(octyl)]L[Aib]L[βAla]-{NH((S)CH(Me)CH2NHC2H4OH)}) |
| 8.10 | 7.60 | 8.15 | 8.22 | CCCCCCCC[C@H](NC(=O)C(C)(C)NC(=O)C(C)(C)NC(=O)[C@H](Cc1ccccc1)NC(=O)[C@@H]1CCCN1C(=O)CCC)C(=O)N[C@@H](CC(C)C)C(=O)NC(C)(C)C(=O)N[C@@H](CC(C)C)C(=O)NCCC(=O)N[C@@H](C)CNCCO (Butyryl-PF[Aib][Aib][Gly(octyl)]L[Aib]L[βAla]-{NH((S)CH(Me)CH2NHC2H4OH)}) |
| 7.49 | 6.81 | 7.46 | 7.15 | CCCCCCCC[C@H](NC(=O)C(C)(C)NC(=O)C(C)(C)NC(=O)[C@H](Cc1ccc(O)cc1)NC(=O)[C@@H]1CCCN1C(=O)CCC)C(=O)N[C@@H](CC(C)C)C(=O)NC(C)(C)C(=O)N[C@@H](CC(C)C)C(=O)NCCC(=O)N[C@@H](C)CNCCO (Butyryl-PY[Aib][Aib][Gly(octyl)]L[Aib]L[βAla]-{NH((S)CH(Me)CH2NHC2H4OH)}) |
| 7.82 | 7.22 | 7.68 | 7.64 | CCCCCCCC[C@H](NC(=O)C(C)(C)NC(=O)C(C)(C)NC(=O)[C@H](Cc1c[nH]c2ccccc12)NC(=O)[C@@H]1CCCN1C(=O)CCC)C(=O)N[C@@H](CC(C)C)C(=O)NC(C)(C)C(=O)N[C@@H](CC(C)C)C(=O)NCCC(=O)N[C@@H](C)CNCCO (Butyryl-PW[Aib][Aib][Gly(octyl)]L[Aib]L[βAla]-{NH((S)CH(Me)CH2NHC2H4OH)}) |
| 7.06 | 6.51 | 7.12 | 6.88 | CCCCCCCC[C@H](NC(=O)C(C)(C)NC(=O)C(C)(C)NC(=O)CNC(=O)[C@@H]1CCCN1C(=O)CCC)C(=O)N[C@@H](CC(C)C)C(=O)NC(C)(C)C(=O)N[C@@H](CC(C)C)C(=O)NCCC(=O)N[C@@H](C)CNCCO (Butyryl-PG[Aib][Aib][Gly(octyl)]L[Aib]L[βAla]-{NH((S)CH(Me)CH2NHC2H4OH)}) |
| 7.54 | 6.82 | 7.32 | 7.24 | CCCCCCCC[C@H](NC(=O)C(C)(C)NC(=O)C(C)(C)NC(=O)C(C)(C)NC(=O)[C@@H]1CCCN1C(=O)CCC)C(=O)N[C@@H](CC(C)C)C(=O)NC(C)(C)C(=O)N[C@@H](CC(C)C)C(=O)NCCC(=O)N[C@@H](C)CNCCO (Butyryl-P[Aib][Aib][Aib][Gly(octyl)]L[Aib]L[βAla]-{NH((S)CH(Me)CH2NHC2H4OH)}) |
| 8.40 | 7.92 | 8.52 | 8.70 | CCCCCCCC[C@H](NC(=O)C(C)(C)NC(=O)C(C)(C)NC(=O)[C@H](CC1CCCCC1)NC(=O)[C@@H]1CCCN1C(=O)CCC)C(=O)N[C@@H](CC(C)C)C(=O)NC(C)(C)C(=O)N[C@@H](CC(C)C)C(=O)NCCC(=O)N[C@@H](C)CNCCO (Butyryl-P[Cha][Aib][Aib][Gly(octyl)]L[Aib]L[βAla]-{NH((S)CH(Me)CH2NHC2H4OH)}) |
| 8.00 | 7.54 | 8.00 | 8.10 | CCCCCCCC[C@H](NC(=O)C(C)(C)NC(=O)C(C)(C)NC(=O)[C@H](CC1CC1)NC(=O)[C@@H]1CCCN1C(=O)CCC)C(=O)N[C@@H](CC(C)C)C(=O)NC(C)(C)C(=O)N[C@@H](CC(C)C)C(=O)NCCC(=O)N[C@@H](C)CNCCO (Butyryl-P[Ala(cPr)][Aib][Aib][Gly(octyl)]L[Aib]L[βAla]-{NH((S)CH(Me)CH2NHC2H4OH)}) |
| 8.10 | 7.37 | 7.96 | 8.00 | CCCCCCCC[C@H](NC(=O)C(C)(C)NC(=O)C(C)(C)NC(=O)[C@H](CCSC)NC(=O)[C@@H]1CCCN1C(=O)CCC)C(=O)N[C@@H](CC(C)C)C(=O)NC(C)(C)C(=O)N[C@@H](CC(C)C)C(=O)NCCC(=O)N[C@@H](C)CNCCO (Butyryl-PM[Aib][Aib][Gly(octyl)]L[Aib]L[βAla]-{NH((S)CH(Me)CH2NHC2H4OH)}) |
